{
  "source": "patent US10376520B2",
  "about": "“Methods for the treatment of cardiovascular disorders” (Galapagos NV, priority 2015, dated 2019)",
  "origin": "cited, not measured here",
  "key": {"patients": {"system": "patients", "conditions": "first 3 months of exposure in the controlled clinical trials, cited from earlier work"}, "RA patient": {"system": "RA patient", "conditions": "10 mg bid for 6 weeks in RA patient; cited from earlier work"}},
  "note": "Where two headings read alike, the source gives them in different places.",
  "data": [
    {"compound": "C[C@@H]1CCN(C(=O)CC#N)C[C@@H]1N(C)c1ncnc2[nH]ccc12", "note": "[Tofacitinib]", "values": [
      {"measurement": "mean [HDL] increased by", "setting": "patients; 5 mg twice daily arm", "result": 10, "unit": "%"},
      {"measurement": "mean [LDL] increased by", "setting": "patients; 5 mg twice daily arm", "result": 15, "unit": "%"},
      {"measurement": "mean [HDL] increased by", "setting": "patients; 10 mg twice daily arm", "result": 12, "unit": "%"},
      {"measurement": "mean [LDL] increased by", "setting": "patients; 10 mg twice daily arm", "result": 19, "unit": "%"},
      {"measurement": "mean [LDL]/[HDL] ratios", "setting": "patients", "result": "essentially unchanged"},
      {"measurement": "atherogenic index before and after treatment (unchanged)", "setting": "RA patient", "result": "about 3.5"}
    ]}
  ]
}
